Measurements from ChEMBL document CHEMBL4024754, “Development of Potent, Protease-Resistant Agonists of the Parathyroid Hormone Receptor with Broad β Residue Distribution” (J Med Chem, 2017).
Numbered stars: 1 amine (or outer) side, 2 acyl side, 3 side chain; on linkers, the order of the positions; unused ones are H or OH. Square brackets hold non-standard residues; d marks the D form. Peptide text beside a SMILES is read from it. * marks the point of attachment. NH(1S,2S-2-CONH2-cPent) = NC(=O)[C@H]1CCC[C@@H]1N*; β3hW = N[C@H](CC(=O)O)Cc1c[nH]c2ccccc12; ACPC(1S,2S) = N[C@H]1CCC[C@@H]1C(=O)*; X1 = O=C([C@H]1CCC[C@@H]1N[*:1])[*:2]; X2 = O=C([C@H]1CNC[C@@H]1N[*:1])[*:2]; hArg = N=C(N)NCCCC[C@H](N)C(=O)O; β3hE = N[C@@H](CCC(=O)O)CC(=O)O; β3hF = N[C@H](CC(=O)O)Cc1ccccc1; β3hK = NCCCC[C@H](N)CC(=O)O; β3hM = CSCC[C@H](N)CC(=O)O; β3hD = NC(CC(=O)O)CC(=O)O; Aib = CC(C)(N)C(=O)O

Legend:
[1] = molecular target: T1, Parathyroid hormone/parathyroid hormone-related peptide receptor (Homo sapiens, UniProt Q03431); assay: Agonist activity at human PTH1 receptor expressed in human GP2.3 cells assessed as induction of cAMP after 12 to 20 mins by luciferase reporter gene assay; type: functional, cell-based; details: read-out: EC50
T1 sequence (Q03431 whole entry): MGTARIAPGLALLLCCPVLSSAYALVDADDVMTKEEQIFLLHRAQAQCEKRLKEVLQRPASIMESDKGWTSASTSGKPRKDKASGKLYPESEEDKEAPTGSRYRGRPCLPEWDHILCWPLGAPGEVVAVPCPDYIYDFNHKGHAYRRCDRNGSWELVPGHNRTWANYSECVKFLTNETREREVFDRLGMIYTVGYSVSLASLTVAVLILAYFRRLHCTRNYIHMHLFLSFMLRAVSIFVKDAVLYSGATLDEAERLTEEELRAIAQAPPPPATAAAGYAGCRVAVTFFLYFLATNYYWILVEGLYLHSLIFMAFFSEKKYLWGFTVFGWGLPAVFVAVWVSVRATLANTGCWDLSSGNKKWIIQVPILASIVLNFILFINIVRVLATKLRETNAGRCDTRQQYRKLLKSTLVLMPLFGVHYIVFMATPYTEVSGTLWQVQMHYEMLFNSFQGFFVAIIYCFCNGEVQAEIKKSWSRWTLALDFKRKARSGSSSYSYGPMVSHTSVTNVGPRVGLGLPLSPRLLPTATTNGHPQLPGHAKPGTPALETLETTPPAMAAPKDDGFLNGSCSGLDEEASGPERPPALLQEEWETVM

[2] = molecular target: T2, Parathyroid hormone/parathyroid hormone-related peptide receptor (Homo sapiens) (UniProt Q03431); assay: Agonist activity at human PTH1 receptor expressed in human GP2.3 cells assessed as induction of cAMP after 12 to 20 mins by luciferase reporter gene assay relative to PTH(1 to 34 residues)-NH2; type: functional, cell-based
T2 sequence (whole entry): T1 sequence (Q03431 whole entry)

EC50 [1] | fold change (FC) [2] | SMILES
 | 60.4 | CC[C@H](C)[C@H](NC(=O)C[C@H](CO)NC(=O)[C@H](CCCCN)NC(=O)CNC(=O)[C@H](CCCCN)NC(=O)[C@H](CC(=O)O)NC(=O)[C@H](Cc1cnc[nH]1)NC(=O)[C@H](CC(C)C)NC(=O)[C@H](CC(C)C)NC(=O)[C@H](CCC(N)=O)NC(=O)[C@H](Cc1cnc[nH]1)NC(=O)[C@H](CCC(=O)O)NC(=O)[C@H](CO)NC(=O)[C@@H](NC(=O)[C@H](C)N)C(C)C)C(=O)N[C@@H](CCC(N)=O)C(=O)N[C@@H](CC(=O)O)C(=O)N[C@H](CC(=O)N[C@@H](CCCNC(=N)N)C(=O)N[C@@H](CCCNC(=N)N)C(=O)N[C@@H](CCCNC(=N)N)C(=O)N[C@@H](CCC(=O)O)CC(=O)N[C@@H](CC(C)C)C(=O)N[C@@H](CC(C)C)C(=O)N[C@@H](CCC(=O)O)C(=O)N[C@@H](CCCCN)CC(=O)N[C@@H](CC(C)C)C(=O)N[C@@H](CC(C)C)C(=O)NC(C)(C)C(=O)N[C@@H](CCCCN)CC(=O)N[C@@H](CC(C)C)C(=O)N[C@@H](Cc1cnc[nH]1)C(=O)N[C@H](C(=O)N[C@@H](C)CC(N)=O)[C@@H](C)O)CC(C)C
0.51 nM | 6.3 | CC[C@H](C)[C@H](NC(=O)[C@H](CCC(=O)O)NC(=O)[C@H](C)NC(=O)[C@@H](NC(=O)[C@H](C)N)C(C)C)C(=O)N[C@@H](CCC(N)=O)C(=O)N[C@@H](CC(C)C)C(=O)N[C@@H](CCSC)C(=O)N[C@@H](Cc1cnc[nH]1)C(=O)N[C@@H](CCC(N)=O)C(=O)N[C@@H](CCCCNC(=N)N)C(=O)N[C@@H](C)C(=O)N[C@@H](CCCCN)C(=O)N[C@H]1CCC[C@@H]1C(=O)N[C@@H](CC(C)C)C(=O)N[C@@H](CC(N)=O)C(=O)N[C@@H](CO)C(=O)N[C@H]1CCC[C@@H]1C(=O)N[C@@H](CCCNC(=N)N)C(=O)N[C@@H](CCCNC(=N)N)C(=O)N[C@H](C(=O)N[C@H]1CNC[C@@H]1C(=O)N[C@@H](Cc1c[nH]c2ccccc12)C(=O)N[C@@H](CC(C)C)C(=O)N[C@@H](CCCNC(=N)N)C(=O)N[C@H]1CNC[C@@H]1C(=O)N[C@@H](CCCCN)C(=O)N[C@@H](CC(C)C)C(=O)N[C@@H](CCC(N)=O)C(=O)N[C@H]1CCC[C@@H]1C(=O)N[C@H](C(=O)N[C@@H](Cc1cnc[nH]1)C(=O)N[C@@H](CC(N)=O)C(=O)N[C@H]1CCC[C@@H]1C(N)=O)C(C)C)C(C)C (H-AVAEIQLMHQ[hArg]AK[X1]LNS[X1]RRV[X2]WLR[X2]KLQ[X1]VHN-{NH(1S,2S-2-CONH2-cPent)})
 | 234 | CSCC[C@H](NC(=O)[C@H]1CCC[C@@H]1NC(=O)[C@H](CCC(N)=O)NC(=O)[C@H]1CCC[C@@H]1NC(=O)[C@H](CCC(=O)O)NC(=O)[C@H](CO)NC(=O)[C@@H](NC(=O)[C@H]1CCC[C@@H]1N)C(C)C)C(=O)N[C@@H](Cc1cnc[nH]1)C(=O)N[C@@H](CC(N)=O)C(=O)N[C@@H](CC(C)C)C(=O)NCC(=O)N[C@@H](CCCCN)C(=O)N[C@H]1CCC[C@@H]1C(=O)N[C@@H](CC(C)C)C(=O)N[C@@H](CC(N)=O)C(=O)N[C@@H](CO)C(=O)N[C@H]1CCC[C@@H]1C(=O)N[C@@H](CCC(=O)O)C(=O)N[C@@H](CCCNC(=N)N)C(=O)N[C@H](C(=O)N[C@H]1CNC[C@@H]1C(=O)N[C@@H](Cc1c[nH]c2ccccc12)C(=O)N[C@@H](CC(C)C)C(=O)N[C@@H](CCCNC(=N)N)C(=O)N[C@H]1CNC[C@@H]1C(=O)N[C@@H](CCCCN)C(=O)N[C@@H](CC(C)C)C(=O)N[C@@H](CCC(N)=O)C(=O)N[C@H]1CCC[C@@H]1C(=O)N[C@H](C(=O)N[C@@H](Cc1cnc[nH]1)C(=O)N[C@@H](CC(N)=O)C(=O)N[C@H]1CCC[C@@H]1C(N)=O)C(C)C)C(C)C ({ACPC(1S,2S)}-VSE[X1]Q[X1]MHNLGK[X1]LNS[X1]ERV[X2]WLR[X2]KLQ[X1]VHN-{NH(1S,2S-2-CONH2-cPent)})

The next lines start with the compound.

SMILES | EC50 [1] | fold change (FC) [2]
CC[C@H](C)[C@H](NC(=O)[C@H](CCC(=O)O)NC(=O)C(C)(C)NC(=O)[C@@H](NC(=O)[C@H]1CCC[C@@H]1N)C(C)C)C(=O)N[C@@H](CCC(N)=O)C(=O)N[C@H]1CCC[C@@H]1C(=O)N[C@@H](CCSC)C(=O)N[C@@H](Cc1cnc[nH]1)C(=O)N[C@@H](CCC(N)=O)C(=O)N[C@@H](CCCCNC(=N)N)C(=O)N[C@@H](C)C(=O)N[C@@H](CCCCN)C(=O)N[C@H](CC(=O)N[C@@H](CC(C)C)C(=O)N[C@@H](CC(N)=O)C(=O)N[C@@H](CO)C(=O)N[C@@H](CCSC)CC(=O)N[C@@H](CCCNC(=N)N)C(=O)N[C@@H](CCCNC(=N)N)C(=O)N[C@H](C(=O)N[C@@H](CCC(=O)O)CC(=O)N[C@@H](Cc1c[nH]c2ccccc12)C(=O)N[C@@H](CC(C)C)C(=O)N[C@@H](CCCNC(=N)N)C(=O)N[C@@H](CCCCN)CC(=O)N[C@@H](CCCCN)C(=O)N[C@@H](CC(C)C)C(=O)N[C@@H](CCC(N)=O)C(=O)N[C@@H](CC(=O)O)CC(=O)N[C@H](C(=O)N[C@@H](Cc1cnc[nH]1)C(=O)N[C@@H](CC(N)=O)C(=O)N[C@H](CC(N)=O)Cc1ccccc1)C(C)C)C(C)C)Cc1c[nH]c2ccccc12 ({ACPC(1S,2S)}-V[Aib]EIQ[X1]MHQ[hArg]AK[β3hW]LNS[β3hM]RRV[β3hE]WLR[β3hK]KLQ[β3hD]VHN[β3hF]-NH2) | 0.83 nM | 10
CC[C@H](C)[C@H](NC(=O)[C@H](CCC(=O)O)NC(=O)C(C)(C)NC(=O)[C@@H](NC(=O)[C@H]1CCC[C@@H]1N)C(C)C)C(=O)N[C@@H](CCC(N)=O)C(=O)N[C@H]1CCC[C@@H]1C(=O)N[C@@H](CCSC)C(=O)N[C@@H](Cc1cnc[nH]1)C(=O)N[C@@H](CCC(N)=O)C(=O)N[C@@H](CCCCNC(=N)N)C(=O)N[C@@H](C)C(=O)N[C@@H](CCCCN)C(=O)N[C@@H](Cc1c[nH]c2ccccc12)C(=O)N[C@@H](CC(C)C)C(=O)N[C@@H](CC(N)=O)C(=O)N[C@@H](CO)C(=O)N[C@@H](CCSC)C(=O)N[C@@H](CCCNC(=N)N)C(=O)N[C@@H](CCCNC(=N)N)C(=O)N[C@H](C(=O)N[C@@H](CCC(=O)O)C(=O)N[C@@H](Cc1c[nH]c2ccccc12)C(=O)N[C@@H](CC(C)C)C(=O)N[C@@H](CCCNC(=N)N)C(=O)N[C@@H](CCCCN)C(=O)N[C@@H](CCCCN)C(=O)N[C@@H](CC(C)C)C(=O)N[C@@H](CCC(N)=O)C(=O)N[C@@H](CC(=O)O)C(=O)N[C@H](C(=O)N[C@@H](Cc1cnc[nH]1)C(=O)N[C@@H](CC(N)=O)C(=O)N[C@@H](Cc1ccccc1)C(N)=O)C(C)C)C(C)C ({ACPC(1S,2S)}-V[Aib]EIQ[X1]MHQ[hArg]AKWLNSMRRVEWLRKKLQDVHNF-NH2) | 0.52 nM | 6.3
CC[C@H](C)[C@H](NC(=O)[C@H]1CCC[C@@H]1NC(=O)[C@H](C)NC(=O)[C@H](NC(=O)[C@H](CC(C)C)NC(=O)[C@H]1CNC[C@@H]1NC(=O)[C@H](Cc1cnc[nH]1)NC(=O)[C@H](CC(C)C)NC(=O)[C@H](Cc1ccccc1)NC(=O)[C@H]1CNC[C@@H]1NC(=O)[C@H](CCCNC(=N)N)NC(=O)[C@H](CCCNC(=N)N)NC(=O)[C@H](CCCNC(=N)N)NC(=O)[C@H]1CCC[C@@H]1NC(=O)[C@H](CC(=O)O)NC(=O)[C@H](CCC(N)=O)NC(=O)[C@@H](NC(=O)[C@H]1CCC[C@@H]1NC(=O)[C@H](CCCCN)NC(=O)CNC(=O)[C@H](CCCCN)NC(=O)[C@H](CC(=O)O)NC(=O)[C@H](Cc1cnc[nH]1)NC(=O)[C@H](CC(C)C)NC(=O)[C@H](CC(C)C)NC(=O)[C@H](CCC(N)=O)NC(=O)[C@H](Cc1cnc[nH]1)NC(=O)[C@H](CCC(=O)O)NC(=O)[C@H](CO)NC(=O)[C@@H](NC(=O)[C@H](C)N)C(C)C)[C@@H](C)CC)[C@@H](C)CC)C(=O)N[C@@H](Cc1cnc[nH]1)C(=O)N[C@H](C(=O)N[C@H]1CCC[C@@H]1C(N)=O)[C@@H](C)O |  | 9.4
CC[C@H](C)[C@H](NC(=O)[C@H]1CCC[C@@H]1NC(=O)[C@H](CCCCN)NC(=O)CNC(=O)[C@H](CCCCN)NC(=O)[C@H](CC(=O)O)NC(=O)[C@H](Cc1cnc[nH]1)NC(=O)[C@H](CC(C)C)NC(=O)[C@H](CC(C)C)NC(=O)[C@H](CCC(N)=O)NC(=O)[C@H](Cc1cnc[nH]1)NC(=O)[C@H](CCC(=O)O)NC(=O)[C@H](CO)NC(=O)[C@@H](NC(=O)[C@H](C)N)C(C)C)C(=O)N[C@@H](CCC(N)=O)C(=O)N[C@@H](CC(=O)O)C(=O)N[C@H]1CCC[C@@H]1C(=O)N[C@@H](CCCNC(=N)N)C(=O)N[C@@H](CCCNC(=N)N)C(=O)N[C@@H](CCCNC(=N)N)C(=O)N[C@H]1CNC[C@@H]1C(=O)N[C@@H](CC(C)C)C(=O)N[C@@H](CC(C)C)C(=O)N[C@@H](CCC(=O)O)C(=O)N[C@H]1CNC[C@@H]1C(=O)N[C@@H](CC(C)C)C(=O)N[C@@H](CC(C)C)C(=O)NC(C)(C)C(=O)N[C@H]1CCC[C@@H]1C(=O)N[C@@H](CC(C)C)C(=O)N[C@@H](Cc1cnc[nH]1)C(=O)N[C@H](C(=O)N[C@H]1CCC[C@@H]1C(N)=O)[C@@H](C)O (H-AVSEHQLLHDKGK[X1]IQD[X1]RRR[X2]LLE[X2]LL[Aib][X1]LHT-{NH(1S,2S-2-CONH2-cPent)}) |  | 2.6
